# Measurements reported in US20250296971A1, “GASTRIC INHIBITORY PEPTIDE RECEPTOR LIGANDS” (priority 2021, published 2025).
# *1 amine or outer side, *2 acyl side, *3 side chain or, on linkers, in order; H or OH if unused. Where a SMILES comes first, the peptide text is derived from it. Bridges are numbered along the chain shown (N, C = ends). [ ]: non-standard residue; d: D form. Trp(5-Cl) = N[C@@H](Cc1c[nH]c2ccc(Cl)cc12)C(=O)O; Pyridine(2,6-diCH2) = c1cc(C[*:1])nc(C[*:2])c1; Pro(trans-4-F) = O=C(O)[C@@H]1C[C@@H](F)CN1; N(CH2CH2COOH)Gly = O=C(O)CCNCC(=O)O; Cya = N[C@@H](CS(=O)(=O)O)C(=O)O; Hyp = O=C(O)[C@@H]1C[C@@H](O)CN1; hSer = N[C@@H](CCO)C(=O)O; Nphe = O=C(O)CNCc1ccccc1; Thp = NC1(C(=O)O)CCOCC1; Nleu = CC(C)CNCC(=O)O; Nlys = NCCCCNCC(=O)O
# Molecular target: T1, GIPR (CHO-K1-hGIPR cells) (Homo sapiens, UniProt P48546)
# T1 construct: host or cells: CHO-K1
# T1 sequence (P48546 22-466): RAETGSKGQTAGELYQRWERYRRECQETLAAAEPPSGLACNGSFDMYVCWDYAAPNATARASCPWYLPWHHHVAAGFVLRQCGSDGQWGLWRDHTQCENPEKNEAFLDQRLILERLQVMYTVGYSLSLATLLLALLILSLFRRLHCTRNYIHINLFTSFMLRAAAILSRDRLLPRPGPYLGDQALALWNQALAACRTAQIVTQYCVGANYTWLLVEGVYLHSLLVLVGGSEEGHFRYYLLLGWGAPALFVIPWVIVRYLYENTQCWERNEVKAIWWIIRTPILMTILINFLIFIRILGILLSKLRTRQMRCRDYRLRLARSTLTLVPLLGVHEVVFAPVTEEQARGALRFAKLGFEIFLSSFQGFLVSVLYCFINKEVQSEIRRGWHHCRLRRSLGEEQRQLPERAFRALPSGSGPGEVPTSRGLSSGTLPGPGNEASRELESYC
# Assay: FACS binding assay
# Conditions: competition with 20 nM GIP-057, 4° C., 1 hour, read-out: pIC50 Category (converted)
# How it was run: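 CHO-K1 cells expressing human GIPR, washed in PBS/1% FCS, then stained with 1 μg/mL APC-streptavidin for 30 min on ice.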
row,Structure (SMILES),IC50
1,"CC[C@H](C)[C@@H]1NC(=O)[C@H](CC(C)C)NC(=O)C2(CCOCC2)NC(=O)[C@@H](NC(=O)[C@@H](CC(C)C)NC(=O)[C@H](CCC(=O)O)NC(=O)CN(CC(C)C)C(=O)[C@H](Cc2c[nH]c3ccc(Cl)cc23)NC(=O)[C@H](Cc2c[nH]c3ccccc23)NC(=O)[C@H](CC(=O)O)NC(C)=O)CSCc2cccc(n2)CSC[C@@H](C(N)=O)NC1=O [GIP-184, Ac-Asp-Trp-5Clw-Nleu-Glu-leu-[Cys(2Lut)-Thp-Leu-Ile-Cys]-NH2] (Ac-DW[Trp(5-Cl)][Nleu]E[dL]C[Thp]LIC-NH2; linker 7-11 via Pyridine(2,6-diCH2))",< 10 nM
2,"CC[C@H](C)[C@@H]1NC(=O)[C@H](CC(C)C)NC(=O)C2(CCOCC2)NC(=O)[C@@H](NC(=O)[C@@H](CC(C)C)NC(=O)[C@H](CCC(=O)O)NC(=O)CN(Cc2ccccc2)C(=O)[C@H](Cc2c[nH]c3ccc(Cl)cc23)NC(=O)[C@H](Cc2c[nH]c3ccccc23)NC(=O)[C@H](CC(=O)O)NC(C)=O)CSCc2cccc(n2)CSC[C@@H](C(N)=O)NC1=O [GIP-185, Ac-Asp-Trp-5Clw-Nphe-Glu-leu-[Cys(2Lut)-Thp-Leu-Ile-Cys]-NH2] (Ac-DW[Trp(5-Cl)][Nphe]E[dL]C[Thp]LIC-NH2; linker 7-11 via Pyridine(2,6-diCH2))",< 10 nM
3,"CC[C@H](C)[C@@H]1NC(=O)[C@H](CC(C)C)NC(=O)C2(CCOCC2)NC(=O)[C@@H](NC(=O)[C@@H](CC(C)C)NC(=O)[C@H](CCC(=O)O)NC(=O)CN(CCCCN)C(=O)[C@H](Cc2c[nH]c3ccc(Cl)cc23)NC(=O)[C@H](Cc2c[nH]c3ccccc23)NC(=O)[C@H](CC(=O)O)NC(C)=O)CSCc2cccc(n2)CSC[C@@H](C(N)=O)NC1=O [GIP-186, Ac-Asp-Trp-5Clw-Nlys-Glu-leu-[Cys(2Lut)-Thp-Leu-Ile-Cys]-NH2] (Ac-DW[Trp(5-Cl)][Nlys]E[dL]C[Thp]LIC-NH2; linker 7-11 via Pyridine(2,6-diCH2))",< 10 nM
4,"CC[C@H](C)[C@@H]1NC(=O)[C@H](CC(C)C)NC(=O)C2(CCOCC2)NC(=O)[C@@H](NC(=O)[C@@H](CC(C)C)NC(=O)[C@H](CCC(=O)O)NC(=O)[C@@H]2C[C@@H](F)CN2C(=O)[C@H](Cc2c[nH]c3ccc(Cl)cc23)NC(=O)[C@H](Cc2c[nH]c3ccccc23)NC(=O)[C@H](CC(=O)O)NC(C)=O)CSCc2cccc(n2)CSC[C@@H](C(N)=O)NC1=O [GIP-187, Ac-Asp-Trp-5Clw-4Tfp-Glu-leu-[Cys(2Lut)-Thp-Leu-Ile-Cys]-NH2] (Ac-DW[Trp(5-Cl)][Pro(trans-4-F)]E[dL]C[Thp]LIC-NH2; linker 7-11 via Pyridine(2,6-diCH2))",< 10 nM
5,"CC[C@H](C)[C@@H]1NC(=O)[C@H](CC(C)C)NC(=O)C2(CCOCC2)NC(=O)[C@@H](NC(=O)[C@@H](CC(C)C)NC(=O)[C@H](CC(=O)O)NC(=O)[C@@H]2C[C@@H](O)CN2C(=O)[C@H](Cc2c[nH]c3ccc(Cl)cc23)NC(=O)[C@H](Cc2c[nH]c3ccccc23)NC(=O)[C@H](CC(=O)O)NC(C)=O)CSCc2cccc(n2)CSC[C@@H](C(N)=O)NC1=O [GIP-192, Ac-Asp-Trp-5Clw-Hyp-Asp-leu-[Cys(2Lut)-Thp-Leu-Ile-Cys]-NH2] (Ac-DW[Trp(5-Cl)][Hyp]D[dL]C[Thp]LIC-NH2; linker 7-11 via Pyridine(2,6-diCH2))",< 10 nM
6,"CC[C@H](C)[C@@H]1NC(=O)[C@H](CC(C)C)NC(=O)C2(CCOCC2)NC(=O)[C@@H](NC(=O)[C@@H](CC(C)C)NC(=O)[C@H](CCC(=O)O)NC(=O)CN(CCC(=O)O)C(=O)[C@H](Cc2c[nH]c3ccc(Cl)cc23)NC(=O)[C@H](Cc2c[nH]c3ccccc23)NC(=O)[C@H](CC(=O)O)NC(C)=O)CSCc2cccc(n2)CSC[C@@H](C(N)=O)NC1=O [GIP-196, Ac-Asp-Trp-5Clw-Nglu-Glu-leu-[Cys(2Lut)-Thp-Leu-Ile-Cys]-NH2] (Ac-DW[Trp(5-Cl)][N(CH2CH2COOH)Gly]E[dL]C[Thp]LIC-NH2; linker 7-11 via Pyridine(2,6-diCH2))",< 10 nM

# Other lines, results leading:
row,IC50,Structure (SMILES)
1,< 10 nM,"CC[C@H](C)[C@@H]1NC(=O)[C@H](CC(C)C)NC(=O)C2(CCOCC2)NC(=O)[C@@H](NC(=O)[C@@H](CC(C)C)NC(=O)[C@H](CCC(=O)O)NC(=O)[C@@H]2C[C@@H](O)CN2C(=O)[C@H](Cc2c[nH]c3ccc(Cl)cc23)NC(=O)[C@H](Cc2c[nH]c3ccccc23)NC(=O)[C@H](CS(=O)(=O)O)NC(C)=O)CSCc2cccc(n2)CSC[C@@H](C(N)=O)NC1=O [GIP-189, Ac-Cya-Trp-5Clw-Hyp-Glu-leu-[Cys(2Lut)-Thp-Leu-Ile-Cys]-NH2] (Ac-[Cya]W[Trp(5-Cl)][Hyp]E[dL]C[Thp]LIC-NH2; linker 7-11 via Pyridine(2,6-diCH2))"
2,< 10 nM,"CC[C@H](C)[C@@H]1NC(=O)[C@H](CC(C)C)NC(=O)C2(CCOCC2)NC(=O)[C@@H](NC(=O)[C@@H](CC(C)C)NC(=O)[C@H](CCC(=O)O)NC(=O)[C@@H]2C[C@@H](O)CN2C(=O)[C@H](Cc2c[nH]c3ccc(Cl)cc23)NC(=O)[C@H](Cc2c[nH]c3ccccc23)NC(=O)[C@H](CC(N)=O)NC(C)=O)CSCc2cccc(n2)CSC[C@@H](C(N)=O)NC1=O [GIP-190, Ac-Asn-Trp-5Clw-Hyp-Glu-leu-[Cys(2Lut)-Thp-Leu-Ile-Cys]-NH2] (Ac-NW[Trp(5-Cl)][Hyp]E[dL]C[Thp]LIC-NH2; linker 7-11 via Pyridine(2,6-diCH2))"
3,< 10 nM,"CC[C@H](C)[C@@H]1NC(=O)[C@H](CC(C)C)NC(=O)C2(CCOCC2)NC(=O)[C@@H](NC(=O)[C@@H](CC(C)C)NC(=O)[C@H](CCC(=O)O)NC(=O)[C@@H]2C[C@@H](O)CN2C(=O)[C@H](Cc2c[nH]c3ccc(Cl)cc23)NC(=O)[C@H](Cc2c[nH]c3ccccc23)NC(=O)[C@H](CCC(=O)O)NC(C)=O)CSCc2cccc(n2)CSC[C@@H](C(N)=O)NC1=O [GIP-191, Ac-Asn-Trp-5Clw-Hyp-Glu-leu-[Cys(2Lut)-Thp-Leu-Ile-Cys]-NH2] (Ac-EW[Trp(5-Cl)][Hyp]E[dL]C[Thp]LIC-NH2; linker 7-11 via Pyridine(2,6-diCH2))"
4,< 10 nM,"CC[C@H](C)[C@@H]1NC(=O)[C@H](CC(C)C)NC(=O)C2(CCOCC2)NC(=O)[C@@H](NC(=O)[C@@H](CC(C)C)NC(=O)[C@H](CCC(N)=O)NC(=O)[C@@H]2C[C@@H](O)CN2C(=O)[C@H](Cc2c[nH]c3ccc(Cl)cc23)NC(=O)[C@H](Cc2c[nH]c3ccccc23)NC(=O)[C@H](CC(=O)O)NC(C)=O)CSCc2cccc(n2)CSC[C@@H](C(N)=O)NC1=O [GIP-193, Ac-Asp-Trp-5Clw-Hyp-Gln-leu-[Cys(2Lut)-Thp-Leu-Ile-Cys]-NH2] (Ac-DW[Trp(5-Cl)][Hyp]Q[dL]C[Thp]LIC-NH2; linker 7-11 via Pyridine(2,6-diCH2))"
5,< 10 nM,"CC[C@H](C)[C@@H]1NC(=O)[C@H](CC(C)C)NC(=O)C2(CCOCC2)NC(=O)[C@@H](NC(=O)[C@@H](CC(C)C)NC(=O)[C@H](CCC(=O)O)NC(=O)[C@@H]2C[C@@H](O)CN2C(=O)[C@H](Cc2c[nH]c3ccc(Cl)cc23)NC(=O)[C@H](Cc2c[nH]c3ccccc23)NC(=O)[C@H](CCO)NC(C)=O)CSCc2cccc(n2)CSC[C@@H](C(N)=O)NC1=O [GIP-195, Ac-Hse-Trp-5Clw-Hyp-Glu-leu-[Cys(2Lut)-Thp-Leu-Ile-Cys]-NH2] (Ac-[hSer]W[Trp(5-Cl)][Hyp]E[dL]C[Thp]LIC-NH2; linker 7-11 via Pyridine(2,6-diCH2))"
